Experiments:
[1] = total group of 13 pigs, coronary venous injection
[2] = Coronary venous injection of Evans Blue dye via AIV or MCV, regional myocardial infiltration; type: in vivo, pigs; conditions: LV apex, anterior interventricular septum and anterior wall via AIV, inferoposterior wall via MCV
Procedure: Methods and Results: In 13 anesthetized pigs the coronary sinus was cannulated percutaneously and a balloon-tipped catheter was advanced to the anterior interventricular vein (AIV) or middle cardiac vein (MCV). […] Injection was performed with hyperbaric pressure in 8/13 cases (61%).

| Structure (SMILES) | persistence of contrast in myocardium (videodensitometric analysis) [1] | time for 50% clearance from myocardium (videodensitometric analysis) ([1]; FIG. 1) [min] | infiltration of targeted myocardial regions [2] |
| --- | --- | --- | --- |
| CC(=O)Nc1c(I)c(NC(C)=O)c(I)c(C(=O)O)c1I [diatrizoate] | at least 30 minutes | ~4 | – |
| Cc1cc(-c2ccc(/N=N/c3ccc4c(S(=O)(=O)O)cc(S(=O)(=O)O)c(N)c4c3O)c(C)c2)ccc1/N=N/c1ccc2c(S(=O)(=O)O)cc(S(=O)(=O)O)c(N)c2c1O [Evans Blue dye, Evans Blue] | – | – | localized, regional infiltration was reproducibly accomplished |
